According to patent US9908896B2, “P38 and JNK MAPK inhibitors for the treatment and prophylaxis of degenerative diseases of the nervous system” (ALLINKY BIOPHARMA, priority 2014, dated 2018):

How the values were obtained:
[1] = molecular target: T1, recombinant activated p38alpha (Homo sapiens, UniProt Q16539); test: in vitro kinase assay p38 (ADP-Glo); type: biochemical; settings: 100 μM ATP
T1 construct: purchased ProQinase
Protocol: Purified recombinant activated p38alpha (10 nM)(ProQinase) was preincubated 10 minutes at 30° C. with the compound of interest at concentrations between 1 and 100 μM in duplicate in a final volume of 30 μl of kinase buffer (Hepes 60 mM pH 7.5, MgCl2 3 mM, MnCl2 3 mM, sodium orthovanadate 3 μM, DTT 1.2 mM). After preincubation, peptide substrate (SignalChem #P03-58) and ATP were added to a final concentration of 10 μM and 100 μM respectively, and then incubated 40 minutes at 30° C. for the kinase reaction. Phosphorylation was analysed with ADP-Glo™ (Promega #V9101) and emitted luminescence was measured with BMG Fluostar microplate reader.

[2] = tested on: TNF-α secretion by a human monocytic cell line, THP-1; test: Inhibition of TNF-α secretion by LPS-stimulated THP-1 cells (ELISA); type: cell-based; settings: LPS-stimulated THP-1, TNF-α
Protocol: Thp1-Inhibition of TNF-α Secretion by a Human Monocytic Cell Line, THP-1
THP-1 cells, growing in log phase, were collected by centrifugation and resuspended in RPMI 1640 (Sigma Aldrich), to a final cell concentration of 2×10^6 cells/ml. Cells were plated into 24-well plates (BD Biosciences). Dilutions of compounds in dimethyl sulfoxide (DMSO) were added to the culture to a final concentration M. The final DMSO concentration was 0.5%. The cells […] suspensions were preincubated with compounds for 1 h at 37° C. in a 5% CO2 humidified atmosphere before the addition of LPS (Sigma Aldrich, L2654) to a g/ml. After that, cells were incubated for 3 h followed final concentration of […] by centrifugation to pellet cells. Cell supernatants were stored at 4° C. until human analysis for TNF-α content. TNF-α levels were determined by ELISA (TNF Biotrak, GE Healthcare) following the manufacturer's directions. The percentage inhibition was calculated for each compound concentration tested, and the IC50 was calculated for each compound.

[3] = tested on: Aβ25-35-induced learning deficits; test: Novel object recognition after i.c.v. Aβ25-35 injection; type: in vivo, male Sprague Dawley rats; settings: 10 mg/kg i.v. once a day
Protocol: The purpose of the study was to determine whether the test compound 1 can alleviate the pathology produced in rats by the acute intracerebroventricular (i.c.v) injection of an oligomeric Aβ25-35 peptide preparation. The compound efficacy was evaluated 7 days after the peptide administration, on: • the attenuation of the Aβ25-35-induced learning deficits (recognition long-term memory: novel object recognition); • the attenuation of the Aβ25-35-induced Aβ^1-42 accumulation in the rat hippocampus. One administration procedure was examined: the compound 1 (10 mg/kg) administered intraveinously (i.v.) once a day during 9 days. […] On day 8 and 9, the recognition long-term memory of the animals was assessed using the novel object recognition (NOR) procedure. […] Each rat was placed in the open-field and the exploratory activity recorded during a 10-min duration session. The activity was analyzed using the Nosetrack® protocol (Viewpoint), in terms of number of contact with objects and duration of contacts. […] Each rat was placed again in the open-field and the exploratory activity recorded during a 10-min duration session. The activity was analyzed similarly. The preferential exploration index was calculated as the ratio of the number (or duration) of contacts with the object in position #1 over the total number for duration) of contacts with the two objects. […]

[4] = tested on: Aβ25-35-induced Aβ1-42 accumulation in the rat hippocampus; test: Aβ1-42 content in hippocampus by ELISA after i.c.v. Aβ25-35 injection; type: in vivo, male Sprague Dawley rats; settings: 10 mg/kg i.v. once a day; after Aβ25-35 injection; vs Sc.Aβ/Veh group
Protocol: The compound efficacy was evaluated 7 days after the peptide administration, on: • the attenuation of the Aβ25-35-induced learning deficits (recognition long-term memory: novel object recognition); • the attenuation of the Aβ25-35-induced Aβ^1-42 accumulation in the rat hippocampus.
One administration procedure was examined: the compound 1 (10 mg/kg) administered intraveinously (i.v.) once a day during 9 days.
On day 10, all animals were sacrificed, the frontal cortex and hippocampi dissected out. One hippocampus was used for the ELISA analyses of Aβ1-42 content.
Samples were prepared from one hippocampus tissues of each rat per group and homogenized in an extraction buffer specific to the commercial ELISA assay kits.
After thawing, the hippocampus were homogenized in 50 mM Tris-150 mM NaCl buffer, pH 7.5, and sonicated for 20 s. After centrifugation (16,100 g for 15 min, 4° C.), supernatants were used for Aβ1-42 ELISA assay according to the manufacturer instructions. Absorbance was read at 450 nm and sample concentration was calculated using the standard curve. Results will be expressed in pg of Aβ1-42 per mg of tissue. […]
All values were expressed as mean±S.E.M. Statistical analyses were performed on the different conditions using one-way ANOVA (F value), followed by the Dunnett's post-hoc multiple comparison test. p<0.05 was considered as statistically significant.

T1 sequence (Q16539 whole entry): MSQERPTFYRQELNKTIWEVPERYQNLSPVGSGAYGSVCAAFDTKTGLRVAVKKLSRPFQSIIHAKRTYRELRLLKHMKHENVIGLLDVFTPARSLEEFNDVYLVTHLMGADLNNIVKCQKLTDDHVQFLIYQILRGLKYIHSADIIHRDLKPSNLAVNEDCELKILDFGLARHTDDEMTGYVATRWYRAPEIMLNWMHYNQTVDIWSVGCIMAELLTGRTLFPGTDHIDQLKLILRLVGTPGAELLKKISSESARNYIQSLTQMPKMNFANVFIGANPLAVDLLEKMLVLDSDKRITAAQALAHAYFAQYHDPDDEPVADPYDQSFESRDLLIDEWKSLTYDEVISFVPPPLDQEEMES

For CCCOc1ccc(Nc2nc3nonc3nc2N2CCC(Oc3ccc(Cl)cc3)CC2)cc1 [Comp 1], which inhibition at 1 µM ([1]; 1 μM compound) is on record?
The inhibition at 1 µM was 37%.

And the inhibition at 10 µM ([1]; 10 μM compound)?
Its inhibition at 10 µM is 99%.

What about the inhibition at 1 µM ([2]; 1 μM compound, read-out: % of inhibition at 1 μM, THP1) of the same compound?
The inhibition at 1 µM was 51%.

What about the inhibition at 10 µM ([2]; 10 μM compound, read-out: % of inhibition at 10 μM, THP1) of the same compound?
The inhibition at 10 µM was 74%.

And the “Object preference in session 2 (contacts and duration of contacts)” value ([3]; day 8, two identical objects, vs no preference level)?
Its value is “higher than 50%”.

What about the “Novel object preference in session 3 (number and duration of contacts)” value ([3]; day 9, vs 50% level) of the same compound?
Its value is “alleviated the impairments”.

And the “Aβ1-42 level in the hippocampus” value [4]?
Its value is “decreased the Aβ1-42 level increase”.
